≈ marks a conversion by molar mass, not a printed value.

In the experiment the test system is M. tuberculosis sp. 210. Kind of experiment: Tuberculostatic activity, classical test-tube method of successive dilution. To be noted: Mycobacterium tuberculosis; sp. 210, wild strain resistant to PAS, INH, ETB, RFP. The class given is cell-based.
Molecule `NC(=NS(=O)(=O)c1cnccc1Cl)c1ccccn1` [Compound 2, N′-[(4-Chloropyridin-3-yl)sulfonyl]-2-pyridinecarboximidamide] returned an MIC of 50 µg/mL (≈ 168 µM).
The same measure for `NC(=NS(=O)(=O)c1ccccc1Cl)c1ncccn1` [Compound 7, N′-[(2-Chlorophenyl)sulfonyl]pyrimidine-2-carboximidamide]: 50 µg/mL (≈ 168 µM); for `NC(=NS(=O)(=O)c1cnccc1Cl)c1ncccn1` [Compound 8, N′-[(4-Chloropyridin-3-yl)sulfonyl]pyrimidine-2-carboximidamide]: 50 µg/mL (≈ 168 µM); for `NC(=NS(=O)(=O)c1cnccc1Cl)c1cnccn1` [Compound 10, N′-[(4-Chloropyridin-3-yl)sulfonyl]pyrazine-2-carboximidamide]: 50 µg/mL (≈ 168 µM).
In the case of `NNC(=O)c1ccncc1` [INH, isoniazid, reference compound], the MIC was 1.1 µg/mL (≈ 8.02 µM). This MIC is about 45-fold lower than that of the molecule before.

Values taken from paper PMC4494771, “Synthesis, structure, and biological activity of novel heterocyclic sulfonyl-carboximidamides” (Monatshefte Fur Chemie, 2013).
